Measurements taken from patent publication US11167046B2, “IR dyes for fluorescence imaging” (LI-COR, INC., priority 2014, dated 2021).
Where two headings read alike, the source gives them in different places.

How the values were obtained:
[1] = Excitation and emission of the NIR imaging probe; assay type: physicochemical
Excerpt: The NIR imaging probe used was the compound of Formula 1; excitation 773 nm and emission 790 nm or independently, Formula 2, excitation 772 nm and emission 787 nm.

[2] = Elimination routes in mice: serial whole animal imaging and organ imaging; assay type: in vivo, nude mice; details: for plasma protein binding: inferred from liver retention / clearance; for excretion / elimination route: 1 nmole by tail vein injection; for signal in kidneys and liver, organ 1/10th LUT scale: organs harvested after 24 hours, 1 nmole tail vein
Description: This example describes an experiment to evaluate the excretion of the dyes described herein from animals injected with such. The dyes tested were stable cyanine dyes (IRdyes): 800CW, 800BK-sulfonate (compound of Formula 1; 800BK or BK) and 800BK-NOS (compound of Formula 2; 800NOS or NOS). In this study 12 nude mice (3 per treatment group) were injected with either (1) no probe (control group); (2) 800CW; (3) 800NOS; or (4) 800BK. The three probes (800CW-1166 g/mole (should have been 1091.1 g/mole), 800NOS-1011.09 g/mole, and 800BK-1113.14 g/mole) were dissolved in PBS. A spot test of the three probes was performed to detect the fluorescent signal when diluted to the injection dose of 1 nmole/100 μl (FIG. 12).
The mice received 1 nmole of dye by tail vein injection. The mice were imaged serially over 24 hours after IV injection: 5 minutes, 1 hour, 2 hours, 4 hours, 6 hours and 24 hours after injection. A representative series of images are presented in FIGS. 13A-13C of one animal per dye. All the data was normalized to the same LUT. A control mouse (no probe) was used as a reference (no signal control). Imaging was performed using the Pearl® Trilogy Imaging System (LI-COR®).
The mice were then sacrificed and their organs and tissue (i.e., liver, kidney, lungs, spleen and muscle) were harvested. The organs were imaged to detect fluorescence. When the same LUT was used for the animal and organ images, fluorescence in the organs was not detectable. As such, the low end of the animal scale was expanded such that the images of the organs could be evaluated (FIG. 14). For example, the “Organs 1/10th scale” was used for the images of FIGS. 15A-15D and the “Organs 1/100th scales was used for the images of FIGS. 16A-16D.

[3] = Excised organ evaluation at 24 hrs and 72 hrs; assay type: in vivo, mouse
Excerpt: FIGS. 11A-11H show images of various mouse organs after administration. Fluorescence images of various mouse organs at 24 and 72 hrs post-administration for the comparative control (FIG. 11A), compound of Formula 1 (FIGS. 11C and 11E) and compound of Formula 2 (FIGS. 11B and 11D). Organs examined included: heart (Ht), lungs (Ln), kidney (Kd), liver (Lv), spleen (Spl), intestine (Int), brain (Br), and muscle (Ms). […] FIGS. 11F-11H show intraoperative fluorescence (800 nm, compound of Formula 2) (FIG. 11G), white light (FIG. 11F), and composite images of the liver, gall bladder, and bile duct for compound of Formula 2 (0.1 nmole) (FIG. 11H).
Fluorescent signal intensities of various organs were examined at 24 hrs and 72 hrs for the compound of Formula 1 and the compound of Formula 2 (FIG. 11A-11E). Organs examined included: heart (Ht), lungs (Ln), kidney (Kd), liver (Lv), spleen (Spl), intestine (Int), brain (Br), and muscle (Ms).

[4] = Excised organs imaged at 24 hrs; assay type: in vivo, nude mice; details: for detected in the brain: excised organs at 24 hrs
Description: (§1) Animals injected with the probes were imaged over time using the 800 fluorescence channel of the Pearl Impulse Imaging System (LI-COR Biosciences). Clearance profiles for 800CW, the compound of Formula 1, and the compound of Formula 2 were carried out in nude mice (dose of 1 nmole for all compounds). Serial images and excised organs were evaluated over a 24 hr period. A Pearl Impulse small animal imaging system was used for all animal and organ image acquisitions.
Organs were excised at 24 hrs and imaged.

[5] = Solubility in water or aqueous media; assay type: physicochemical; details: for concentration when re-suspended in water: in some embodiments; for solubility in water: stated as 'can be'
[6] = mouse, in vivo
[7] = Clearance profiles by whole-animal fluorescence imaging (dorsal and ventral) in nude mice; assay type: in vivo
Description: as §1
Non-invasive imaging will not capture signals for the full depth of the animal but the intensity values are useful to show a relative trend.
Another way of examining fluorescence signals is by measuring the % of the compound remaining at a particular time point. The 30 min time point is the baseline to which other time points are normalized.
The percent signal remaining at each time is shown with the 30 min time point post-injection, which is used as the baseline.

A549 cells = assay: In vitro cell-based assay of non-specific binding, A549 cells; details: dyes compared to 800CW
Excerpt: (§2) FIGS. 2A, and 2B illustrate in vitro cell-based analyses for A549 cells (A) and A431 cells (B).
(§3) In vitro cell-based assays with two carcinoma cell lines (A431 and A549) were done to assess non-specific binding of the compound of Formula 1 and the compound of Formula 2. The dyes were compared to 800CW.
(§4) The fluorescence in each well was quantified with the instrument software.

A431 cells = assay: In vitro cell-based assay of non-specific binding, A431 cells; details: dyes compared to 800CW
Excerpt: as §2, §3, §4

[8] = Fluorescent signal analysis of mouse urine; details: urine extracted with acetonitrile:methanol; Odyssey CLx, 800 nm
[9] = Biliary tract imaging, comparison with ICG and dose response; assay type: in vivo, mouse; details: for time post-intravenous administration by which gall bladder is visible: continues visible at 2 hrs and 5 hrs
Description: A Pearl Impulse small animal imaging system was used for all animal and organ image acquisitions.
A comparison of the dose responses for the compound of Formula 2 are shown in FIG. 10B (1 nmole), FIG. 10C (0.5 nmole), and FIGS. 10D and 10E (0.1 nmole) at time periods of 1 min, 30 min, 2 hrs, 5 hrs, and 24 hrs. All images are presented using the same LUT table except FIG. 10E where the LUT for FIG. 10D has been reduced to brighten the 800 nm signal so they are visible.

[10] = 30 min post-injection (baseline), 1 nmole, whole body, ventral view
[11] = 120 min post-injection, normalized to 30 min, 1 nmole
[12] = 300 min post-injection, normalized to 30 min, 1 nmole
[13] = 1440 min post-injection, normalized to 30 min, 1 nmole

Row | Structure (SMILES) | emission [1] | excitation [1] | plasma protein binding [2] | retention time in the liver ([2]; nude mice, 1 nmole IV) | excretion / elimination route ([2]; nude mice) | signal in kidneys and liver, organ 1/10th LUT scale [2] | fluorescent signal in excised organs ([3]; 24 hrs post administration) | fluorescent signal in excised organs ([3]; 72 hrs post administration) | detected in the brain [4] | concentration when re-suspended in water [5] | solubility in water [5] | clearance pattern (route), ventral images ([7]; 1 nmole) | percent signal remaining [7, 10] | percent signal remaining [7, 11] | percent signal remaining [7, 12] | percent signal remaining [7, 13] | non-specific binding (A549 cells) | non-specific binding (A431 cells) | other results
1 | CC1(C)C(/C=C/C2=C(Oc3ccc(S(=O)(=O)O)cc3)C(=C/C=C3/N(CCCCS(=O)(=O)O)c4ccc(S(=O)(=O)[O-])cc4C3(C)C)/CCC2)=[N+](CCCCS(=O)(=O)O)c2ccc(S(=O)(=O)O)cc21 [Compound of Formula 1, 2-((E)-2-((E)-3-(2-((E)-3,3-dimethyl-5-sulfonato-1-(4-sulfonatobutyl)indolin-2-ylidene)ethylidene)-2-(4-sulfonatophenoxy)cyclohex-1-en-1-yl)vinyl)-3,3-dimethyl-1-(4-sulfonatobutyl)-3H-indol-1-ium-5-sulfonate] | 790 nm | 773 nm | increased (higher) plasma protein binding of 800BK than 800CW | longer retention time in the liver compared to 800CW and 800NOS | excreted renally | detectable signal | some signal in the liver and kidney | diminished substantially | None | at least 200 mg/mL | highly soluble in water | clear rapidly via the kidney | 100% | 81% | 19% | 1.4% | more comparable to 800CW | more comparable to 800CW | signal in the liver ([2]; excised organs, 24 hours): higher signal compared to 800CW; retention in liver and kidney, excised organs ([4]; 24 hrs post injection): retained at higher levels in the liver and kidney compared to the compound of Formula 2; primary elimination route [6]: renal; bladder signal, ventral images ([7]; 1 nmole): strongest signal; movement through tissues and retention in organs ([7]; in vivo data): moves rapidly through the tissues but is retained for an extended period in organs; clearance (whole body fluorescence) compared to compound of Formula 2 ([7]; ventral view, 1 nmole): slower clearance
2 | CC1(C)C(/C=C/C=C/C=C/C=C2/N(CCCCS(=O)(=O)[O-])c3ccc4ccccc4c3C2(C)C)=[N+](CCCCS(=O)(=O)[O-])c2ccc3ccccc3c21.[Na+] [ICG, indocyanine green] | – | – | – | – | – | – | – | – | – | – | – | – | – | – | – | – | – | – | fluorescent signal in urine [8]: No fluorescent signal
3 | CC1(C)C(/C=C/C2=C(Oc3ccccc3)C(=C/C=C3/N(CCCCS(=O)(=O)O)c4ccc(S(=O)(=O)[O-])cc4C3(C)C)/CCC2)=[N+](CCCCS(=O)(=O)O)c2ccc(S(=O)(=O)O)cc21 [Compound of Formula 2, 2-((E)-2-((E)-3-(2-((E)-3,3-dimethyl-5-sulfonato-1-(4-sulfonatobutyl)indolin-2-ylidene)ethylidene)-2-phenoxycyclohex-1-en-1-yl)vinyl)-3,3-dimethyl-1-(4-sulfonatobutyl)-3H-indol-1-ium-5-sulfonate] | 787 nm | 772 nm | low plasma protein binding activity | very short retention time in the liver | eliminated from the body via the biliary tract (liver, gall bladder and bile ducts) and intestines | detectable signal | some signal in the liver and kidney | diminished substantially | None | at least 200 mg/mL | highly soluble in water | clears through the liver | 100% | 70% | 14% | 1.4% | significant increase in non-specific binding compared to either the compound of Formula 1 and 800CW by two-fold | significant increase in non-specific binding compared to either the compound of Formula 1 and 800CW by two-fold | intestinal signal ([2]; 24 hours post injection): barely detectable; clearance from the whole body to the biliary system ([2]; nude mice, 1 nmole IV): rapid; excretion into the intestines ([2]; nude mice, 1 nmole IV): rapid excretion into the intestines; time at which the liver was visible ([2]; nude mice, 1 nmole IV): 15 min; time during which predominant signal was in the intestines ([2]; nude mice, 1 nmole IV): 2 to 6 h; detection signal in images ([9]; 0.1 nmole dose, same scale as 1 nmole and 0.5 nmole series): very low detection signal; gall bladder target region visibility ([9]; 0.1 nmole dose, scale adjusted (FIG. 10E)): visible on a very low background; time post-intravenous administration by which gall bladder is visible ([9]; 0.5 nmole dose): ≤ 30 min; time post-intravenous administration by which gall bladder is visible ([9]; 1 nmole dose): ≤ 30 min; liver signals, excised organs ([4]; 24 hrs post injection): lower liver signals at 24 hrs when compared to 800CW and the compound of Formula 1; fluorescent signal in urine [6]: slight fluorescence; percent signal remaining ([7]; 120 min post-injection, normalized to 30 min, 1 nmole, listed as compound of Formula 2): greatest reduction; fluorescence signal, dorsal view ([7]; 2 hrs post injection, 1 nmole): high signal, emanating in the liver region; whole body signal ([7]; 5 hr post injection, 1 nmole): low compared to 800CW and the compound of Formula 1; whole body fluorescence signal ([7]; ventral view, 1 nmole): lower overall than the signal for 800CW and the compound of Formula 1
